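Tested at 5 concentrations; 48 h exposure; 96-well plates; endpoints linearly interpolated, else capped at highest concentration. Here, GI50 denotes the concentration required for 50% inhibition of growth. TGI: total growth inhibition.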 *1 amine or outer side, *2 acyl side, *3 side chain or, on linkers, in order; H or OH if unused. Where a SMILES comes first, the peptide text is derived from it. Bridges are numbered along the chain shown (N, C = ends). [ ]: non-standard residue; d: D form. ξ: configuration not given here. X35 = CC[C@H](C)[C@@H](N[*:1])[C@@H](O)CC(=O)O[C@H](C(=O)[C@H](C)C(=O)[*:2])C(C)C; NMeY = CN[C@@H](Cc1ccc(O)cc1)C(=O)O; dNMeL = CN[C@H](CC(C)C)C(=O)O; ξΔPro = O=C(O)C1C=CCN1
Experiments:
Test in all cases: NCI anticancer screen, dose series, 48 h
HCC-2998 colon = tested on: HCC-2998 colon
PC-3 prostate = tested on: PC-3 prostate
MDA-MB-435 = tested on: MDA-MB-435
RPMI-8226 leukemia = tested on: RPMI-8226 leukemia
U251 CNS = tested on: U251 CNS
UO-31 renal = tested on: UO-31 renal
MCF7 breast = tested on: MCF7 breast
SK-MEL-28 melanoma = tested on: SK-MEL-28 melanoma
HOP-92 NSCLC = tested on: HOP-92 NSCLC
SNB-75 CNS = tested on: SNB-75 CNS

Structure (SMILES)	TGI (HCC-2998 colon) [µM]	TGI (PC-3 prostate) [µM]	TGI (MDA-MB-435) [µM]	TGI (RPMI-8226 leukemia) [µM]	TGI (U251 CNS) [µM]	TGI (UO-31 renal) [µM]	TGI (MCF7 breast) [µM]	TGI (SK-MEL-28 melanoma) [µM]	TGI (HOP-92 NSCLC) [µM]	TGI (SNB-75 CNS) [µM]	GI50 (HCC-2998 colon) [µM]	GI50 (HOP-92 NSCLC) [µM]	GI50 (PC-3 prostate) [µM]	GI50 (MDA-MB-435) [µM]	GI50 (RPMI-8226 leukemia) [µM]	GI50 (SNB-75 CNS) [µM]	GI50 (SK-MEL-28 melanoma) [µM]	GI50 (U251 CNS) [µM]	GI50 (UO-31 renal) [µM]	GI50 (MCF7 breast) [µM]
COc1cccc(C23CCCC(C2)N(C)CC3OC(=O)c2ccccc2)c1OC (configuration not stated)	78.1	81.8	38.4	55.3	> 100	> 100	> 100	87.8												
O=C(NCCCCCCO)c1cccc2cc3ccccc3nc12		31.9	47.3	47.3	> 100		39.3	42.5	> 100	37.3										
O=c1c(O)cccn1C1OC(CO)C(O)C1O (configuration not stated)	> 100			> 100	> 100	> 100		> 100	> 100	> 100										
C[PH+](c1nc2ccccc2nc1[PH+](C)C(C)(C)C)C(C)(C)C.C[PH+](c1nc2ccccc2nc1[PH+](C)C(C)(C)C)C(C)(C)C.[Au+].[Cl-] (configuration not stated)	0.302	0.144	0.158	0.245				1.5	0.0681	1.34	0.0296	0.0225	0.0286	0.0345	0.0357	0.0224	0.0538			
C=CCCCCn1c2ccccc2c2c(C)c3cnccc3c(C)c21	51.2			12.8	40.6	23.8	36.7	40.8	19.8	53.7										
O=NN1CCCS1(=O)=O	> 100	> 100		> 100	> 100	> 100	> 100	> 100		> 100										
COc1cc2c(c(OC)c1)C(=O)O[C@H](C)CCCC/C=C/C2	> 32.9		12.9	25.6	30.5	> 30.8	> 32.6	> 34.1	25.7	> 32.8										
COc1cc2oc(-c3ccc4c(c3)OCO4)c(OC)c(=O)c2c(O)c1OC	> 50	> 50	> 50		> 50	> 50	> 50	> 50	> 50	> 50										
CC[C@H](C)[C@H]1NC(=O)[C@@H](NC(=O)[C@@H](CC(C)C)N(C)C(=O)C2C=CCN2)[C@@H](C)OC(=O)[C@H](Cc2ccc(OC)cc2)N(C)C(=O)[C@@H]2CCCN2C(=O)[C@H](CC(C)C)NC(=O)[C@@H](C)C(=O)[C@H](C(C)C)OC(=O)C[C@@H]1O (some centres not stated) (H-[ξΔPro][dNMeL]T[X35]LP[NMeY](Me); ester 3-C)	0.0488	1.06	0.0687		0.738	0.303	0.423	< 0.005	0.171	0.0107										
C[C@]12CC[C@H]3[C@@H](CCC4=C(Br)C(=O)C=C[C@@]43O)[C@@H]1CCC2=O		> 100	> 100	> 100	> 100	> 100	> 100	> 100	75.9											
C[C@]12CCC(=O)C=C1CC[C@@H]1[C@@H]2[C@@H](O)C[C@@]2(C)[C@H]1CC[C@]2(O)C(=O)COC(=O)CCC1CCCC1	> 100				> 100	> 100		> 100	> 100	> 100										
COc1cc2oc(=O)cc(C)c2cc1OC		> 100	> 100	> 100	> 100	> 100	> 100	> 100		> 100										
N#C/C(=C1/c2cc([N+](=O)[O-])ccc2-c2c1cc([N+](=O)[O-])cc2[N+](=O)[O-])N1CCCCC1	> 100	> 100	> 100	> 100	> 100	> 100	> 100	> 100		41.2										
O=c1c2cc(Br)ccc2ncn1COCc1ccccc1	> 100		> 100		> 100	> 100	> 100	> 100	> 100											
NC1c2c(Cl)sc(Cl)c2C(=O)C1O (configuration not stated)	30.7	> 100	> 100		60	> 100	66		84.3	> 100										
COC(=O)c1cc(C)ccc1C1CN=NC12Cc1c(C)cc(C)cc1C2=O (configuration not stated)	78.2	> 100	> 100		> 100	> 100	69.1	> 100	40.9	66.8										
Cn1ccc2c(c1=O)C(=O)OC2(C)C	> 100	> 100		> 100	> 100	> 100	> 100	> 100		> 100										
O=c1nc2ccc3sc4ccccc4c(=O)c3n2c(=O)[nH]1	> 100	> 100	> 100	> 100	> 100	> 100	> 100	> 100		> 100										
CC(C)(Cc1ccccc1)N1C(=O)N1C(C)(C)Cc1ccccc1	> 100	> 100	> 100	38.5	> 100	> 100	> 100	> 100		> 100										
NC(=S)NNC(=S)NC(=O)c1ccco1	> 10		> 10	> 10	> 10	> 10		> 10	> 10	> 10										
CCOC(=O)CCC(NC(=O)OCc1ccccc1)C(=O)NC(CCC(=O)OCC)C(=O)NC(CCC(=O)OCC)C(=O)NNC(=O)OC(C)(C)C (configuration not stated)	> 100	> 100		> 100	> 100	> 100	> 100	> 100	> 100	> 100										
CS(=O)(=O)[O-].CS(=O)(=O)[O-].NC1CCCCC1N.[Pt+4] (configuration not stated)	> 100			> 100	> 100	> 100	> 100	> 100	> 100	> 100	> 100	> 100			17.7	> 68	71.6	> 87.2	> 96.5	66.3
CC1(C)C=[N+]([O-])C(C)(C)N1O	> 10	> 10	> 10	> 10	> 10	> 10	> 10		> 10											
